Tested on: mycolic acid biosynthesis
Assay: spectrophotometric assay of mycolic acid (carbol fuchsin complex) from treated M. smegmatis cells
Assay type: cell-based, Mycobacterium smegmatis
Settings: for production/synthesis of mycolic acid: Mycobacterium smegmatis treated with the substance, result in words; for absorbance at 495.89 nm: mycolic acid-carbol fuchsin complex in hexane, M. smegmatis grown 48 hrs at sub-lethal concentration (½ MIC): extract 312 μg/ml, thebaine 150 μg/ml, isoniazid 1 μg/ml, untreated control 1.4885
Text: Mycolic acids are branched, β-hydroxy fatty acids which occur in the cell wall of Corynebacterium, Nocardia and Mycobacterium. Their molecular size varies with the genus, i.e., from 30, 50, 80-carbon atoms in the order described above. Because of the correlation between genus and mycolic acid size, the test for this biochemical marker is done in the early stage of the identification of unknown actinomycetes. The method followed in this invention for the extraction of mycolic acid is according to Minniken et al. (1975). After proper growth of the bacteria, the culture is centrifuged at 5000 RPM for 5 minutes and lyophilized. Dry bacteria (100 mg) are mixed with methanol (5 ml), Toluene (5 ml) and concentrated sulphuric acid (0.2 ml) in a 20-ml screw cap tube (poly tetra fluoro ethylene lined). The contents of the tube are mixed thoroughly and methanolysis is allowed to proceed for 12-16 hours at 75° C. (stationary incubation). The reaction mixture is allowed to cool and mycolic acid is extracted by adding 1 ml of hexane. After vigorous mixing the mixture is allowed to settle and the upper hexane layer containing mycolic acid is collected. Samples of the hexane extract were spotted on TLC coated with Merck silica gel H (0.5 mm), along with standard mycolic acid and the chromatogram is developed in petroleum ether: diethyl ether (85:15).
By using this method the mycolic acid produced by the control was quantified as well as treated cells of M. smegmatis with different plant extracts and compounds. Some of the compounds are known to inhibit mycolic acid biosynthesis and others are plant extracts and unknown compounds. The compounds and the extracts were selected on the basis of loosening of acid fast stain in Mycobacterium smegmatis.
The culture of Mycobacterium smegmatis was frown in nutrient broth containing the sub-lethal concentration (½ MIC) of the compounds/extracts for 48 hrs. The cells were harvested by centrifugation and the pellets were lyophilized. Equal amount of the cells (100 mg) were taken both of control and treated cells and kept for methanolysis overnight as described in Example 1. The extracted hexane layer was allowed to dry and a common stock (5 mg/ml) was used to run a TLC plate to determine how much the inhibition of mycolic acid by calculation the amount of produced mycolic acid by a densitometer.
Compounds, which were showing loosening of acid fast staining, were also tested for spectrophotometric assay. The strain of Mycobacterium smegmatis giving 100% acid fast staining was grown for 48 hours in 50 ml culture media. As described earlier treatment of different compounds were given at sub-lethal concentrations in replicates were also grown for 48 hours. […]
The details of the treatments and the absorbance by different treatments are described in Table 2.

Structure (SMILES) | production/synthesis of mycolic acid | absorbance at 495.89 nm
NNC(=O)c1ccncc1 [Isoniazid] | does not allow the production of mycolic acid | 0
COC1=CC=C2[C@H]3Cc4ccc(OC)c5c4[C@@]2(CCN3C)[C@H]1O5 [Thebaine] | do not allow the synthesis of mycolic acid | 0

Source: patent US6833249B2, “Quick and sensitive method of quantifying mycolic acid to develop anti-microbial agents and a diagnostic kit thereof” (Council of Scientific and Industrial Research, priority 2002, dated 2004)
